# Source: US20100120700A1, “METHODS AND COMPOSITIONS FOR TREATING CERVICAL CANCER” (priority 2000, published 2010)
# “And” between values parts separate entries of the source, which are not always exact repeats. Identical values can stand only once.
# Key:
# Test in all cases: G assay PDZ-PL binding
# [1] = biological target: T1, KIAA1095 domain 1 (Homo sapiens, UniProt Q9UPQ7); conditions: peptide 10 uM, protein 5
# T1 construct: made in house; host or cells: E. coli (DH5alpha, BL21 or JM109)
# Method: (§1) (1) A PDZ-domain polypeptide is bound to a surface, e.g. a protein binding surface. In a preferred embodiment, a GST/PDZ fusion protein containing one or more PDZ domains is bound to a polystyrene 96-well plate. […] In one embodiment, the GST/PDZ fusion protein is bound via an anti-GST antibody that is coated onto the 96-well plate. Adequate binding to the plate can be achieved when: • a. 100 uL per well of 5 ug/mL goat anti-GST polyclonal antibody (Pierce) in PBS is added to a polystyrene 96-well plate (e.g., Num Polysorb) at 4° C. for 12 hours. • b. The plate is blocked by addition of 200 uL per well of PBS/BSA for 2 hours at 4° C. • c. The plate is washed 3 times with PBS. • d. 50 uL per well of 5 ug/mL GST/PDZ fusion protein) or, as a negative control, GST polypeptide alone (i.e. not a fusion protein) in PBS/BSA is added to the plate for 2 hours at 4° C. • e. The plate is again washed 3 times with PBS. […]
# (§2) (3) The binding of the biotinylated peptide to the GST/PDZ fusion protein surface can be detected using a variety of methods and detectors known to one of skill in the art. In one embodiment, 100 uL per well of 0.5 ug/mL streptavidin-horse radish peroxidase (HRP) conjugate dissolved in BSA/PBS is added and allowed to react for 20 minutes at 4° C. The plate is then washed 5 times with 50 mM Tris pH 8.0 containing 0.2% Tween 20, and developed by addition of 100 uL per well of HRP-substrate solution (TMB, Dako) for 20 minutes at room temperature (RT). The reaction of the HRP and its substrate is terminated by addition of 100 uL per well of 1M sulfuric acid, and the absorbance of each well of the plate is read at 450 nm.
# (§3) (4) Specific binding of a PL peptide and a PDZ domain polypeptide is determined by comparing the signal from the well(s) in which the PL peptide and PDZ domain polypeptide are combined, with the background signal(s). The background signal is the signal found in the negative control(s). Typically a specific or selective reaction will be at least twice background signal, more typically more than 5 times background, and most typically 10 or more times the background signal. In addition, a statistically significant reaction will involve multiple measurements of the reaction with the signal and the background differing by at least two standard errors, more typically four standard errors, and most typically six or more standard errors. Correspondingly, a statistical test (e.g. a T-test) comparing repeated measurements of the signal with-repeated measurements of the background will result in a p-value<0.05, more typically a p-value<0.01, and most typically a p-value<0.001 or less. As noted, in an embodiment of the “G” assay, the signal from binding of a given PL peptide to immobilized (surface bound) GST polypeptide alone is one suitable negative control (sometimes referred to as “B 1”). Because all measurement are done in multiples (i.e. at least duplicate) the arithmetic mean (or, equivalently, average.) of several measurements is used in determining the binding, and the standard error of the mean is used in determining the probable error in the measurement of the binding. The standard error of the mean of N measurements equals the square root of the following: the sum of the squares of the difference between each measurement and the mean, divided by the product of (N) and (N−1). Thus, in one embodiment, specific binding of the PDZ protein to the platebound peptide is determined by comparing the mean signal (“mean S”) and standard error of the signal (“SE”) for a particular PL-PDZ combination with the mean B1.
# (§4) For convenience, the assay conditions described in this section are referred to as the “G’ assay” and the “G” assay,” with the specific conditions described in the preceding section on G assays being referred to as the “G° assay.” The “G′ assay” is identical to the “G° assay” except at step (2) the peptide concentration is 10 uM instead of 20 uM. […]
# [2] = biological target: T2, MUPP1 domain 10 (Homo sapiens, UniProt O75970); conditions: peptide 10 uM, protein 5
# T2 construct: made in house; host or cells: E. coli (DH5alpha or BL-21)
# Method: as §1, §2, §3, §4
# [3] = biological target: T3, Densin domain 1 (Homo sapiens, UniProt Q96NW7); conditions: peptide 10 uM, protein 5
# T3 construct: made in house; host or cells: E. coli (DH5alpha or BL-21)
# Method: as §1, §2, §3, §4
# [4] = biological target: T4, TIP 43 #264.1 domain 1 (Homo sapiens, UniProt Q13884); conditions: vs GST only well, peptide 10 uM, protein 5
# T4 construct: made in house; host or cells: E. coli (DH5alpha, BL21 or JM109)
# Method: as §1, §2, §3, §4
# [5] = biological target: T5, PDZK1 domain 2, 3, 4 (Homo sapiens, UniProt Q5T2W1); conditions: peptide 10 uM, protein 5
# T5 construct: When more than one PDZ domain was cloned, the DNA portion cloned represents the PDZ domains and the cDNA portion located between individual domains; made in house; host or cells: E. coli (DH5alpha, BL21 or JM109)
# Method: as §1, §2, §3, §4
# [6] = biological target: T6, MAGI 1 domain 6 (Homo sapiens, UniProt Q96QZ7); conditions: peptide 10 uM, protein 5
# T6 construct: made in house; host or cells: E. coli (DH5alpha, BL21 or JM109), vector pGEX-3X
# Method: as §1, §2, §3, §4
# [7] = biological target: T7, KIAA1719 domain 5 (Homo sapiens, UniProt Q9C0E4); conditions: peptide 10 uM, protein 5
# T7 construct: made in house; host or cells: E. coli (DH5alpha or BL-21)
# Method: as §1, §2, §3, §4
# [8] = biological target: T8, HEMBA 1003117 #226.2 domain 1 (Homo sapiens, UniProt Q96JH8); conditions: peptide 10 uM, protein 5
# T8 construct: made in house; host or cells: E. coli (DH5alpha, BL21 or JM109)
# Method: as §1, §2, §3, §4
# [9] = biological target: T9, KIAA0380 #25.6 domain 1 (Homo sapiens, UniProt O15085); conditions: vs GST only well, peptide 10 uM, protein 5
# T9 construct: made in house; host or cells: E. coli (DH5alpha, BL21 or JM109), vector pGEX-3X
# Method: as §1, §2, §3, §4
# [10] = biological target: T10, X-11 beta domain 1 (Homo sapiens, UniProt Q99767); conditions: peptide 10 uM, protein 5
# T10 construct: made in house; host or cells: E. coli (DH5alpha, BL21 or JM109)
# Method: as §1, §2, §3, §4
# [11] = biological target: T11, DLG2 #162.1 domain 2 (Homo sapiens, UniProt Q15700, K278N); conditions: peptide 10 uM, protein 5
# T11 construct: made in house; host or cells: E. coli (DH5alpha, BL21 or JM109), vector pGEX-3X
# Method: as §1, §2, §3, §4
# [12] = biological target: T12, Shank 3 domain 1 (Homo sapiens, UniProt Q9BYB0); conditions: peptide 10 uM, protein 5
# T12 construct: made in house; host or cells: E. coli (DH5alpha or BL-21)
# Method: as §1, §2, §3, §4
# [13] = biological target: T13, ZO-1 domain 1 (Homo sapiens, UniProt Q07157); conditions: peptide 10 uM, protein 5
# T13 construct: made in house; host or cells: E. coli (DH5alpha, BL21 or JM109)
# Method: as §1, §2, §3, §4
# T1 sequence (Q9UPQ7 with tags, fused parts or gaps): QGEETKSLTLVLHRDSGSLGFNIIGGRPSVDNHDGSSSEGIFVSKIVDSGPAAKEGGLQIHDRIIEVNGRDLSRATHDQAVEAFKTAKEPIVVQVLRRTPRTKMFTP
# T8 sequence (Q96JH8 969-1068): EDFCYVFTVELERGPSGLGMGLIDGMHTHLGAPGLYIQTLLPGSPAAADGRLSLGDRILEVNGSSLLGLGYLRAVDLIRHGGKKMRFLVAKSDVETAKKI
# T3 sequence (Q96NW7 1429-1537): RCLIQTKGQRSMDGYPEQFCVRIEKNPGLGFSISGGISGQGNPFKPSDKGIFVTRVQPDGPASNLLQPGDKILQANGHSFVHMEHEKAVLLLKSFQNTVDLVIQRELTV
# T11 sequence (Q15700 whole entry, looked up, the tested form differs by isoform, tags, fused parts or gaps, stated change not applied): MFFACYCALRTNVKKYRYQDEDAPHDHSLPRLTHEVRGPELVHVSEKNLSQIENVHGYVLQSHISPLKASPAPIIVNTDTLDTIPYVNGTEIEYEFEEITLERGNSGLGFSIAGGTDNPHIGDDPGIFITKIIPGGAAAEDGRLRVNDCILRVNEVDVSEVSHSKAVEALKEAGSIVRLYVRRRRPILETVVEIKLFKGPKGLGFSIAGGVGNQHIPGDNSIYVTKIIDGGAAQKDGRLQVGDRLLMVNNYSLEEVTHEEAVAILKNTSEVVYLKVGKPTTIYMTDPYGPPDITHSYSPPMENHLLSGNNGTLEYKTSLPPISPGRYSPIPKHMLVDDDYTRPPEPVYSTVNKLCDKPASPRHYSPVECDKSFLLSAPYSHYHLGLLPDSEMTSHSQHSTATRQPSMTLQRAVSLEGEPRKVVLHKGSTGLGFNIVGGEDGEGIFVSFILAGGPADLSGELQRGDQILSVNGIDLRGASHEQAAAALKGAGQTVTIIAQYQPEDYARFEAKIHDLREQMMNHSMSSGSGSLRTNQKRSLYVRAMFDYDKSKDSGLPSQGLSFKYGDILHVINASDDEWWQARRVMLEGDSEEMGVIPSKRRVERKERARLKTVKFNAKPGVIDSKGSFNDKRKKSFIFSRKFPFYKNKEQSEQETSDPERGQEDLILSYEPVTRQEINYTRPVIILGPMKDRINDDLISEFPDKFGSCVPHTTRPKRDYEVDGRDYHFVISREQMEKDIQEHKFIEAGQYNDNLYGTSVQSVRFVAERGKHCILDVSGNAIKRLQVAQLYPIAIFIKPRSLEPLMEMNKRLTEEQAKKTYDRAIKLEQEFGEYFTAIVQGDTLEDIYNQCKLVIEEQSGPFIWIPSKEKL
# T13 sequence (Q07157 with tags, fused parts or gaps): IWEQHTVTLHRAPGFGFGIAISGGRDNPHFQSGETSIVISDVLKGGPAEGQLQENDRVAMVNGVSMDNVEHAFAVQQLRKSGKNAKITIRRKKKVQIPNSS
# T2 sequence (O75970 with tags, fused parts or gaps): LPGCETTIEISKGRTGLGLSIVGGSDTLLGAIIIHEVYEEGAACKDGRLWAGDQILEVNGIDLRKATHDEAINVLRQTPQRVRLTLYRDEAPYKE
# T10 sequence (Q99767 with tags, fused parts or gaps): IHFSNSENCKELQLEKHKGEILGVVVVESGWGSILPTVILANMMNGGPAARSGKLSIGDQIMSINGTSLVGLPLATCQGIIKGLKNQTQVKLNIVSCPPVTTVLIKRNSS
# T7 sequence (Q9C0E4 with tags, fused parts or gaps): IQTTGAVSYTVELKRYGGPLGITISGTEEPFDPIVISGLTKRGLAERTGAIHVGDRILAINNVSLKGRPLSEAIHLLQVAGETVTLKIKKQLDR
# T4 sequence (Q13884 106-201): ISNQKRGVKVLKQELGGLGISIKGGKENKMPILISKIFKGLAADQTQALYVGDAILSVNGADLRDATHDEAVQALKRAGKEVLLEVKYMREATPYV
# T9 sequence (O15085 45-123): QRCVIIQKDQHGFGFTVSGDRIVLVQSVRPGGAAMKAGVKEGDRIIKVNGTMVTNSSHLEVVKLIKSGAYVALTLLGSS
# T6 sequence (Q96QZ7 1143-1233): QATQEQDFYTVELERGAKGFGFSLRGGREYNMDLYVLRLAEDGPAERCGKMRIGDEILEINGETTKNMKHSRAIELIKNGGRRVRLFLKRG
# T12 sequence (Q9BYB0 638-747): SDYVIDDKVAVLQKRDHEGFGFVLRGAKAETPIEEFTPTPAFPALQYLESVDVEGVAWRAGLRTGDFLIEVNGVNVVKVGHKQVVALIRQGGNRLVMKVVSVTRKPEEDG
substance,measurement,setting,value
"20 mer peptide corresponding to the C-terminus of HPV16 E6 (PDZ ligand), biotinylated in binding assays; ends SSRTRRETQL (SEQ ID NO: 13) [HPV E6 #16]",Ave OD,[1]; A450 nm,2.7045 and 1.711
same,OD S/N,[1]; vs GST only well,13.13 and 7.96
same,Ave OD,[2]; A450 nm,0.3925 and 0.3915
same,OD S/N,[2]; vs GST only well,2.03 and 1.96
same,Ave OD,[3]; A450 nm,0.4205 and 0.3505
same,OD S/N,[3]; vs GST only well,1.96 and 1.82
same,OD S/N,[4],8.50 and 8.76
same,Ave OD,[5]; A450 nm,0.518
same,OD S/N,[5]; vs GST only well,2.64
same,Ave OD,[6]; A450 nm,0.71
same,OD S/N,[6]; vs GST only well,2.47
same,Ave OD,[7]; A450 nm,0.3895
same,OD S/N,[7]; vs GST only well,1.81
same,Ave OD,[8]; A450 nm,0.36 and 0.477
same,OD S/N,[8]; vs GST only well,1.66 and 2.27
same,OD S/N,[9],1.95 and 3.06
same,Ave OD,[10]; A450 nm,0.352
same,OD S/N,[10]; vs GST only well,2.02
same,Ave OD,[11]; A450 nm,0.908 and 0.853
same,OD S/N,[11]; vs GST only well,3.87 and 3.05
same,Ave OD,[12]; A450 nm,0.396
same,OD S/N,[12]; vs GST only well,2.61
same,Ave OD,[13]; A450 nm,0.4125 and 0.5215
same,OD S/N,[13]; vs GST only well,1.83 and 2.83
